Patent US4313944A, “Cycloheptindoles, compositions and use” (Roussel Uclaf, priority 1980, dated 1982)
Structures can show the parent of a compound that is named as a salt.

What was measured:
[1] = tested on: male mice; experiment: Hypobare anoxia study; format: in vivo; conditions: oral, 30 minutes before test, 90 mm Hg
Method: Groups of 10 male mice weighing about 20 to 22 g were not fed for 5 hours and were placed in a hermetically sealed enclosure with a pressure of 90 mm Hg maintained by a pump to determine the time of their survival. […] The results of Table II show the increase of survival time expressed as a percentage of control animals.

[2] = tested on: mice; experiment: Acute toxicity; format: in vivo; conditions: oral, maximum dose which did not cause mortality
[3] = target: T1, dopaminergic receptors (Rattus norvegicus, UniProt P61169); experiment: Affinity for dopaminergic receptors (inhibition of spiroperidol 3H fixation); format: binding; conditions: for fixation to dopaminergic receptors (in words): results of Table I; for IC50: spiroperidol 3H, rat striated bodies, 37° C., pH 7.3, 20 minutes, read-out: 50% inhibiting concentration
T1 construct: from tissue; host or cells: rat striatum (striated bodies), crude membrane preparation
Method: B. Affinity for dopaminergic receptors
The striated bodies taken from the brains of 6 male rats weighing about 150 g were homogenized at one 20th (weight/volume) in 0.32 M sucrose and the homogenized mixture was centrifuged at 1000 g for 10 minutes at 0° C., the surnageant was centrifuged at 30,000 g for 15 minutes at 4° C. The culot was taken up in 25 ml of buffered Tris HCl 50 mM with a pH of 7.7 and the mixture was centrifuged at 30,000 g for 15 minutes at 4° C. The new culot was taken up in 50 ml of buffered Krebs Tris HCl with a pH of 7.3 and the suspension was preincubated at 37° C. for 10 minutes and was then incubated for 20 minutes in a water bath at 37° C. in the presence of spiroperidol 3H, alone or with an excess of haloperidol or with increasing units of the product being tested. The incubated suspensions were filtered with Whatman GF/C and the filters were washed 3 times with 5 ml of buffered Tris HCl 50 mM. The radioactivity of the filters was measured by liquid scintillation and the curve of percentage of fixation of spiroperidol 3H as a function of concentration of test product was determined.

[4] = tested on: nigrostriatal dopaminergic bundle (6-hydroxydopamine unilateral lesion); experiment: Rotation behavior after unilateral injury of nigrostriatal bundle; format: in vivo, male rats; conditions: rats, intraperitoneal
Method: A. Rotation behavior after unilateral injury of nigrostriatal bundle
The unilateral lesion was effected with male rats weighing about 220 g by unilateral injection into nigrostriatal dopaminergic bundle of 8 μg of 6-hydroxydopamine in a solution of 2 μg per μl by the method of Ungerstedt [Acta. Physiol. Scand., Vol. 82 (1971), supp. 367, p. 69-93]. In the animals, the direct dopaminergic agonists such as apomorphine administered generally induces a rotating behavior in the contralateral direction to the injured side. The test compounds were administered more than 5 weeks after the lesion and the rats were placed in an automatic rotometer which determine the number of rotations effected by each animal in 2 directions.
The products of Examples 1, 2 and 3 were intraperitoneally administered and the product of Example 1 provoked 337±99 contralateral rotations at a dose of 5 mg/kg, product of Example 2 provoked 364±50 contralateral rotations at a dose of 1 mg/kg and the product of Example 3 provoked 657±205 contralateral rotations at a dose of 0.1 mg/kg.

[5] = tested on: ulcers in the stomachs of rats; experiment: Antiulcerous activity (Shay ulcers by ligature of pylore); format: in vivo; conditions: oral, about 16 hours after treatment
Excerpt: The technique used is described by Shay et al [Gastroenterology, Vol. 5 (1945), p. 43]. Ulcers were induced in the stomachs of rats by ligature of pylore. The animals were anesthesized with ether and a longitudinal incision of about 1 cm was made beneath the sternum, the glandular part of the stomach and the duodenum were taken out and a ligature was placed a few mm below the pylore. The muscular surface was left as it was and the skin was sutured by 2 clamps.
The animals received orally immediately after a dispersive or the test product in a volume of 0.5 ml/100 g and were kept without food or water until they were killed by carotidinal bleeding which was about 16 hours after treatment. Before removal of the stomach, a ligature was placed above the […]. The gastric liquid was collected to measure the pH and the stomach was then opened by a large curve, was rinsed with physiological serum and was spead out on millimetric paper for examination with a binocular lens. The gravity of the lesions was macroscopically evaluated on a scale of 0 to 4 for each stomach to determine for each group of rats the average intensity of ulcerations.

T1 sequence (P61169 whole entry): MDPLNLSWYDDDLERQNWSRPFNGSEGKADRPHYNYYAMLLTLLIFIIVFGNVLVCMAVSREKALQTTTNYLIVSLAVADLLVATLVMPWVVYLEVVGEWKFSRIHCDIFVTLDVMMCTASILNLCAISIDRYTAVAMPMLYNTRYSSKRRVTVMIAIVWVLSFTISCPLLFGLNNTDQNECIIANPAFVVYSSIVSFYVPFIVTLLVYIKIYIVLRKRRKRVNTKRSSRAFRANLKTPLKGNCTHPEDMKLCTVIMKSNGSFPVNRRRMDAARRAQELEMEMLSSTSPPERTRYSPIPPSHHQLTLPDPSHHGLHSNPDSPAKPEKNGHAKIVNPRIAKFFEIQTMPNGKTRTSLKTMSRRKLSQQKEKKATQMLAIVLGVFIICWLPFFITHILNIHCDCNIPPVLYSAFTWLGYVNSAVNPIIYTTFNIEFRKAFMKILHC

| SMILES | DL0 [2] [mg/kg] | fixation to dopaminergic receptors (in words) [3] | IC50 [3] [nM] | % of increase of survival time ([1]; dose 5 mg/kg) [%] | % of increase of survival time ([1]; dose 25 mg/kg) [%] | also measured |
| --- | --- | --- | --- | --- | --- | --- |
| c1cc2c3c(c[nH]c3c1)CC[C@H]1NCCO[C@H]21 (relative stereo) [Example 1, (7a R,S-trans)-4,6,7,7a,8,9,10,11a-octahydro-[1,4]-oxazino [2',3'-4,5]-cyclohept[1,2,3-c,d]-indole hydrochloride] | 200 | do fix dopaminergic receptors | 10000 | – | – | % of increase of survival time ([1]; dose 2 mg/kg): 14%; % of increase of survival time ([1]; dose 10 mg/kg): 51%; % of increase of survival time ([1]; dose 50 mg/kg): 145%; contralateral rotations ([4]; 5 mg/kg): 337±99 contralateral rotations |
| CN1CCO[C@@H]2c3cccc4[nH]cc(c34)CC[C@H]21 (relative stereo) [Example 2, (7a-R,S-trans) 8-methyl-4,6,7,7a,8,9,10,11a-octahydro-[1,4]-oxazino-[2',3'-4,5]cyclohept[1,2,3-c,d]indole hydrochloride] | 100 | do fix dopaminergic receptors | 950 | 30 | 64 | contralateral rotations ([4]; 1 mg/kg): 364±50 contralateral rotations |
| CCCN1CCO[C@@H]2c3cccc4[nH]cc(c34)CC[C@H]21 (relative stereo) [Example 3, (7a-R,S-trans)-4,6,7,7a,8,9,10,11a-octahydro-8-propyl-[1,4]-oxazino-[2',3'-4,5]cyclohept[1,2,3-c,d]indole hydrochloride] | 100 | do fix dopaminergic receptors | 270 | 102 | 86 | % of increase of survival time ([1]; dose 1 mg/kg): 3%; contralateral rotations ([4]; 0.1 mg/kg): 657±205 contralateral rotations; % protection against ulceration ([5]; dose 5 mg/kg): 51%; % protection against ulceration ([5]; dose 25 mg/kg): 73% |
| CCCN1CCO[C@@H]2c3cccc4[nH]c(Br)c(c34)CC[C@H]21 (relative stereo) [Example 4, (7a-R,S-trans) 5-bromo-4,6,7,7a,8,9,10,11a-octahydro-8-propyl-[1,4]-oxazino-[2',3'-4,5]cyclohept[1,2,3-c,d]indole hydrochloride] | > 1000 | – | – | – | – | – |
| CCCN1CCO[C@@H]2c3cccc4c3c(cn4C)CC[C@H]21 (relative stereo) [Example 5, (7a-R,S-trans) 4,6,7,7a,8,9,10,11a-octahydro-4-methyl-8-propyl-[1,4]-oxazino-[2',3'-4,5]cyclohept[1,2,3-c,d]indole hydrochloride] | 200 | – | – | – | – | – |
